Measurements reported in patent publication US10131652B2, “Pyrimidinyloxy benzene derivatives as herbicides” (E. I. DU PONT DE NEMOURS AND COMPANY, priority 2014, dated 2018).
Read-outs that look alike come from different tables or passages of the source.

Legend:
Assay in all cases: Test F pre-/postemergence plant response
Format in all cases: in vivo
[1] = system: Brazilian crabgrass (Digitaria horizontalis); conditions: Digitaria horizontalis, scale 0 to 100, read-out: Plant response rating, Crabgrass, Brazil
In short: (§1)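 Two application timings were run side by side: soil surface treatment of freshly planted seed in silt loam, and foliar treatment of seedlings 2 to 18 cm high. Plants stayed in the greenhouse 14 to 21 days before visual 0–100 injury scoring against controls.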

[2] = system: Italian ryegrass (Lolium multiflorum); conditions: Lolium multiflorum, scale 0 to 100, read-out: Plant response rating, Ryegrass, Italian; for pest or weed control at 16 g/ha: 16 g ai/ha; for pest or weed control at 31 g/ha: 31 g ai/ha; for pest or weed control at 125 g/ha: 125 g ai/ha
In short: as §1

[3] = system: arrowleaf sida (Sida rhombifolia); conditions: Sida rhombifolia, scale 0 to 100, read-out: Plant response rating, Arrowleaf Sida
In short: as §1

[4] = system: corn (Zea mays); conditions: Zea mays, scale 0 to 100
In short: as §1

[5] = system: fall panicum (Panicum dichotomiflorum); conditions: Panicum dichotomiflorum, scale 0 to 100, read-out: Plant response rating, Panicum, Fall
In short: as §1

[6] = system: goosegrass (Eleusine indica); conditions: Eleusine indica, pre-emergence, scale 0 to 100, read-out: Plant response rating, Goosegrass
In short: as §1

[7] = system: green foxtail (Setaria viridis); conditions: Setaria viridis, pre-emergence, scale 0 to 100, read-out: Plant response rating, Foxtail, Green
In short: as §1

[8] = system: kochia (Kochia scoparia); conditions: Bassia scoparia, pre-emergence, scale 0 to 100, read-out: Plant response rating, Kochia
In short: as §1

[9] = system: lambsquarters (Chenopodium album); conditions: Chenopodium album, pre-emergence, scale 0 to 100, read-out: Plant response rating, Lambsquarters
In short: as §1

[10] = system: large (Lg) crabgrass (Digitaria sanguinalis); conditions: Digitaria sanguinalis, pre-emergence, scale 0 to 100, read-out: Plant response rating, Crabgrass, Large
In short: as §1

[11] = system: nightshade (eastern black nightshade, Solanum ptycanthum); conditions: Solanum, pre-emergence, scale 0 to 100, read-out: Plant response rating, Nightshade
In short: as §1

[12] = system: palmer pigweed (Amaranthus palmeri); conditions: Amaranthus palmeri, post-emergence, scale 0 to 100, read-out: Plant response rating, Pigweed, Palmer
In short: as §1

[13] = system: sandbur (southern sandbur, Cenchrus echinatus); conditions: Cenchrus echinatus, scale 0 to 100, read-out: Plant response rating, Sandbur
In short: as §1

[14] = system: soybean (Glycine max); conditions: Glycine max, scale 0 to 100, read-out: Plant response rating, Soybean
In short: as §1

[15] = system: surinam grass (Brachiaria decumbens); conditions: Urochloa decumbens, pre-emergence, scale 0 to 100, read-out: Plant response rating, Surinam Grass
In short: as §1

[16] = system: wild poinsettia (Euphorbia heterophylla); conditions: Euphorbia heterophylla, scale 0 to 100, read-out: Plant response rating, Poinsettia, Wild
In short: as §1

[17] = post-emergence, 8 g ai/ha Postemergence
[18] = post-emergence, 16 g ai/ha Postemergence
[19] = post-emergence, 31 g ai/ha Postemergence
[20] = post-emergence, 62 g ai/ha Postemergence
[21] = post-emergence, 125 g ai/ha Postemergence
[22] = pre-emergence, 8 g ai/ha Preemergence
[23] = pre-emergence, 16 g ai/ha Preemergence
[24] = pre-emergence, 31 g ai/ha Preemergence
[25] = pre-emergence, 62 g ai/ha Preemergence
[26] = pre-emergence, 125 g ai/ha Preemergence

Compound: FC(F)c1cc(-c2ccccc2Oc2ncc(Cl)cn2)no1 [Compound 35, 5-chloro-2-[2-[5-(difluoromethyl)-3-isoxazolyl]phenoxy]pyrimidine]
- pest or weed control at 8 g/ha [1, 17]: 10%
- pest or weed control at 16 g/ha [1, 18]: 20%
- pest or weed control at 31 g/ha [1, 19]: 30%
- pest or weed control at 62 g/ha [1, 20]: 35%
- pest or weed control at 125 g/ha [1, 21]: 40%
- pest or weed control at 8 g/ha [1, 22]: 0%
- pest or weed control at 16 g/ha [1, 23]: 95%
- pest or weed control at 31 g/ha [1, 24]: 98%
- pest or weed control at 62 g/ha [1, 25]: 100%
- pest or weed control at 125 g/ha [1, 26]: 100%
- pest or weed control at 8 g/ha [2, 17]: 0%
- pest or weed control at 16 g/ha ([2]; post-emergence, Postemergence): 0%
- pest or weed control at 31 g/ha ([2]; post-emergence, Postemergence): 0%
- pest or weed control at 62 g/ha ([2]; post-emergence, 62 g ai/ha, Postemergence): 0%
- pest or weed control at 125 g/ha ([2]; post-emergence, Postemergence): 0%
- pest or weed control at 8 g/ha [2, 22]: 0%
- pest or weed control at 16 g/ha ([2]; pre-emergence, Preemergence): 0%
- pest or weed control at 31 g/ha ([2]; pre-emergence, Preemergence): 15%
- pest or weed control at 125 g/ha ([2]; pre-emergence, Preemergence): 70%
- pest or weed control at 62 g/ha ([2]; pre-emergence, Preemergence): 65%
- pest or weed control at 8 g/ha [3, 17]: 60%
- pest or weed control at 16 g/ha [3, 18]: 80%
- pest or weed control at 31 g/ha [3, 19]: 95%
- pest or weed control at 62 g/ha [3, 20]: 98%
- pest or weed control at 125 g/ha [3, 21]: 98%
- pest or weed control at 8 g/ha [3, 22]: 50%
- pest or weed control at 16 g/ha [3, 23]: 80%
- pest or weed control at 31 g/ha [3, 24]: 100%
- pest or weed control at 62 g/ha [3, 25]: 100%
- pest or weed control at 125 g/ha [3, 26]: 100%
- Corn plant response rating (crop injury, 0 = no effect, 100 = complete kill) at 8 g/ha [4, 17]: 10%
- Corn plant response rating (crop injury, 0 = no effect, 100 = complete kill) at 16 g/ha [4, 18]: 10%
- Corn plant response rating (crop injury, 0 = no effect, 100 = complete kill) at 31 g/ha [4, 19]: 15%
- Corn plant response rating (crop injury, 0 = no effect, 100 = complete kill) at 62 g/ha [4, 20]: 15%
- Corn plant response rating (crop injury, 0 = no effect, 100 = complete kill) at 125 g/ha [4, 21]: 20%
- Corn plant response rating (crop injury, 0 = no effect, 100 = complete kill) at 8 g/ha [4, 22]: 0%
- Corn plant response rating (crop injury, 0 = no effect, 100 = complete kill) at 16 g/ha [4, 23]: 0%
- Corn plant response rating (crop injury, 0 = no effect, 100 = complete kill) at 31 g/ha [4, 24]: 30%
- Corn plant response rating (crop injury, 0 = no effect, 100 = complete kill) at 62 g/ha [4, 25]: 0%
- Corn plant response rating (crop injury, 0 = no effect, 100 = complete kill) at 125 g/ha [4, 26]: 20%
- pest or weed control at 8 g/ha [5, 17]: 30%
- pest or weed control at 16 g/ha [5, 18]: 40%
- pest or weed control at 31 g/ha [5, 19]: 40%
- pest or weed control at 62 g/ha [5, 20]: 50%
- pest or weed control at 125 g/ha [5, 21]: 50%
- pest or weed control at 8 g/ha [5, 22]: 0%
- pest or weed control at 16 g/ha [5, 23]: 35%
- pest or weed control at 31 g/ha [5, 24]: 100%
- pest or weed control at 125 g/ha [5, 26]: 100%
- pest or weed control at 62 g/ha ([5]; pre-emergence, Preemergence): 100%
- pest or weed control at 8 g/ha ([6]; 8 g ai/ha Preemergence): 0%
- pest or weed control at 16 g/ha ([6]; 16 g ai/ha Preemergence): 0%
- pest or weed control at 31 g/ha ([6]; 31 g ai/ha Preemergence): 60%
- pest or weed control at 125 g/ha ([6]; 125 g ai/ha Preemergence): 95%
- pest or weed control at 62 g/ha ([6]; Preemergence): 75%
- pest or weed control at 8 g/ha ([7]; 8 g ai/ha Preemergence): 0%
- pest or weed control at 16 g/ha ([7]; 16 g ai/ha, Preemergence): 0%
- pest or weed control at 31 g/ha ([7]; 31 g ai/ha, Preemergence): 30%
- pest or weed control at 125 g/ha ([7]; 125 g ai/ha, Preemergence): 98%
- pest or weed control at 62 g/ha ([7]; Preemergence): 75%
- pest or weed control at 8 g/ha ([8]; 8 g ai/ha Preemergence): 0%
- pest or weed control at 16 g/ha ([8]; 16 g ai/ha, Preemergence): 40%
- pest or weed control at 31 g/ha ([8]; 31 g ai/ha, Preemergence): 85%
- pest or weed control at 125 g/ha ([8]; 125 g ai/ha, Preemergence): 100%
- pest or weed control at 62 g/ha ([8]; Preemergence): 100%
- pest or weed control at 8 g/ha ([9]; 8 g ai/ha Preemergence): 90%
- pest or weed control at 16 g/ha ([9]; 16 g ai/ha, Preemergence): 98%
- pest or weed control at 31 g/ha ([9]; 31 g ai/ha, Preemergence): 100%
- pest or weed control at 125 g/ha ([9]; 125 g ai/ha, Preemergence): 100%
- pest or weed control at 62 g/ha ([9]; Preemergence): 100%
- pest or weed control at 8 g/ha ([10]; 8 g ai/ha Preemergence): 0%
- pest or weed control at 16 g/ha ([10]; 16 g ai/ha Preemergence): 60%
- pest or weed control at 31 g/ha ([10]; 31 g ai/ha Preemergence): 75%
- pest or weed control at 62 g/ha ([10]; 62 g ai/ha Preemergence): 75%
- pest or weed control at 125 g/ha ([10]; 125 g ai/ha Preemergence): 100%
- pest or weed control at 8 g/ha ([11]; 8 g ai/ha Preemergence): 75%
- pest or weed control at 16 g/ha ([11]; 16 g ai/ha Preemergence): 95%
- pest or weed control at 31 g/ha ([11]; 31 g ai/ha Preemergence): 98%
- pest or weed control at 125 g/ha ([11]; 125 g ai/ha Preemergence): 100%
- pest or weed control at 62 g/ha ([11]; Preemergence): 98%
- pest or weed control at 8 g/ha ([12]; 8 g ai/ha Postemergence): 60%
- pest or weed control at 16 g/ha ([12]; 16 g ai/ha Postemergence): 75%
- pest or weed control at 31 g/ha ([12]; 31 g ai/ha Postemergence): 95%
- pest or weed control at 62 g/ha ([12]; 62 g ai/ha Postemergence): 100%
- pest or weed control at 125 g/ha ([12]; 125 g ai/ha Postemergence): 100%
- pest or weed control at 8 g/ha [13, 17]: 0%
- pest or weed control at 16 g/ha [13, 18]: 0%
- pest or weed control at 31 g/ha [13, 19]: 0%
- pest or weed control at 62 g/ha [13, 20]: 0%
- pest or weed control at 125 g/ha [13, 21]: 0%
- pest or weed control at 8 g/ha [13, 22]: 0%
- pest or weed control at 16 g/ha [13, 23]: 10%
- pest or weed control at 31 g/ha [13, 24]: 10%
- pest or weed control at 125 g/ha [13, 26]: 65%
- pest or weed control at 62 g/ha ([13]; pre-emergence, Preemergence): 40%
- plant injury at 8 g/ha [14, 17]: 70%
- plant injury at 16 g/ha [14, 18]: 80%
- plant injury at 31 g/ha [14, 19]: 85%
- plant injury at 62 g/ha [14, 20]: 95%
- plant injury at 125 g/ha [14, 21]: 98%
- plant injury at 8 g/ha [14, 22]: 0%
- plant injury at 16 g/ha [14, 23]: 35%
- plant injury at 31 g/ha [14, 24]: 40%
- plant injury at 125 g/ha [14, 26]: 90%
- plant injury at 62 g/ha ([14]; pre-emergence, Preemergence): 70%
- pest or weed control at 8 g/ha ([15]; 8 g ai/ha Preemergence): 0%
- pest or weed control at 16 g/ha ([15]; 16 g ai/ha Preemergence): 0%
- pest or weed control at 31 g/ha ([15]; 31 g ai/ha Preemergence): 0%
- pest or weed control at 125 g/ha ([15]; 125 g ai/ha Preemergence): 35%
- pest or weed control at 62 g/ha ([15]; Preemergence): 20%
- pest or weed control at 8 g/ha [16, 17]: 30%
- pest or weed control at 16 g/ha [16, 18]: 40%
- pest or weed control at 31 g/ha [16, 19]: 50%
- pest or weed control at 62 g/ha [16, 20]: 50%
- pest or weed control at 125 g/ha [16, 21]: 80%
- pest or weed control at 8 g/ha [16, 22]: 20%
- pest or weed control at 16 g/ha [16, 23]: 30%
- pest or weed control at 31 g/ha [16, 24]: 35%
- pest or weed control at 125 g/ha [16, 26]: 40%
- pest or weed control at 62 g/ha ([16]; pre-emergence, Preemergence): 70%
